Source: patent US5714476A, “Process for preparing compositions containing neotrehalose” (Kabushiki Kaisha Hayashibara Seibutsu Kagaku Kenkyujo, priority 1990, dated 1998)

Tests used:
[1] = Acidity of aqueous solution; type: physicochemical
From the text: (§1) The physicochemical properties of neotrehalose were studied with a high-purity crystalline neotrehalose specimen prepared by the method in Experiment 2-1.

β-glucosidase = experiment: Action of β-glucosidase; type: biochemical
Heat of dissolution = type: physicochemical; conditions: crystal
From the text: The physicochemical properties of lactoneotrehalose were studied with a high-purity crystalline lactoneotrehalose specimen prepared by the method in Experiment 1-1.

[2] = Hygroscopicity and deliquescence; type: physicochemical; conditions: crystal
From the text: as §1

β-galactosidase = experiment: Action of β-galactosidase; type: biochemical
[3] = Solubility in water at 25° C.; type: physicochemical; conditions: crystal in the form of anhydride, in 100 g water at 25° C.
From the text: as §1

trehalase = experiment: Hydrolysis by trehalase; type: biochemical
From the text: as §1

7 week-old dd mice = experiment: Acute toxicity, oral, mice; type: in vivo
From the text: A crystalline neotrehalose specimen, prepared by the method in Experiment 2-1, was orally administered to 7 week-old dd mice for acute toxicity test.

[4] = Digestion test: oral load test, blood sugar and insulin levels; type: in vivo; conditions: healthy volunteers
From the text: In accordance with the method described in H. Atsuji et al., Journal of Clinical Nutrition, Vol.41, Vol.2, pp.200-208 (1972), the load test by orally-administering to healthy volunteers a crystalline neotrehalose specimen prepared by the method in Experiment 2-1 was done, and their blood was sampled at prescribed time intervals and subjected to the measurements of the blood sugar and insulin levels. As control, glucose was used.

α-glucosidase = experiment: Action of α-glucosidase; type: biochemical
From the text: as §1

Solubility in solvents = type: physicochemical
From the text: as §1

For OC[C@H]1O[C@@H](O[C@H]2[C@H](O)[C@@H](O)[C@H](O[C@H]3O[C@H](CO)[C@@H](O)[C@H](O)[C@H]3O)O[C@@H]2CO)[C@H](O)[C@@H](O)[C@H]1O [lactoneotrehalose, O-β-D-galactopyranosyl-(1→4)-O-β-D-glucopyranosyl α-D-glucopyranoside], the “acidity of an aqueous solution of the crystal” value [1] was “neutral or slight acidity”, the “products formed by the action of β-glucosidase” value (β-glucosidase) was “D-glucose and lactose are formed” and the Heat of dissolution (Heat of dissolution) was 20.0 cal/g. For the same molecule, the hygroscopicity and deliquescence [2] was “Free of hygroscopicity and deliquescence” and the “products formed by the action of β-galactosidase” value (β-galactosidase) was “D-galactose and neotrehalose are formed”.

In the case of OC[C@H]1O[C@@H](O[C@H]2O[C@H](CO)[C@@H](O)[C@H](O)[C@H]2O)[C@H](O)[C@@H](O)[C@@H]1O [neotrehalose, O-α-D-glucopyranosyl β-D-glucopyranoside], the Solubility [3] is reported as “Fifty-five”, the hydrolysis by trehalase (trehalase) is reported as “not hydrolyzed by trehalase” and the toxicity (7 week-old dd mice) is reported as “extremely low”. The animal death (7 week-old dd mice; up to 5 g of the specimen, higher dose was difficult to do) was “no animal death was noted”, the “acidity of an aqueous solution of the crystal” value [1] was “neutral or slight acidity” and the “digestion, absorption, metabolism and utilization” value [4] was “readily digested, absorbed, metabolized and utilized into energy”. For the same molecule, the “time of maximum level of blood sugar after the administration” value [4] was 0.5 to 1 h, the “time of maximum level of insulin after the administration” value [4] was 0.5 to 1 h and the “blood sugar and insulin behaviour compared with glucose” value ([4]; control glucose) was “behaved similarly as to glucose”. The hygroscopicity and deliquescence [2] was “Free of hygroscopicity and deliquescence”, the “product formed by the action of α-glucosidase” value (α-glucosidase) was “D-glucose is formed” and the Solubility in solvents (Solubility in solvents; 0.1N hydrochloric acid) was “Readily soluble”. For the same molecule, the Solubility in solvents (Solubility in solvents; 0.1N sodium hydroxide) was “Readily soluble”, the Solubility in solvents (Solubility in solvents; chloroform) was “insoluble” and the Solubility in solvents (Solubility in solvents; ethanol) was “scarcely soluble”. For the same molecule, the Solubility in solvents (Solubility in solvents; ethyl acetate) was “insoluble”, the Solubility in solvents (Solubility in solvents; methanol) was “scarcely soluble” and the Solubility in solvents (Solubility in solvents; water) was “Readily soluble”.
